Assay: Dissolution rate test of Apixaban/carboxylic acid co-crystal (paddle method, Chinese Pharmacopoeia guidelines; equilibrium solubility in dissolution medium)
Format: physicochemical
Conditions: relative to Apixaban; dissolution medium 0.1mol/L hydrochloric acid, 37±0.5°C, paddle method 100rpm, 900ml, 500 mg sample powder
Protocol: Test Example 1: Dissolution rate test of Apixaban/carboxylic acid co-crystal
According to the dissolution rate test guidelines in the current Chinese Pharmacopoeia, a dissolution rate experiment was designed to respectively investigate the dissolution rates of the five Apixaban/carboxylic acid co-crystals prepared by the present invention. The specific scheme is as follows:
Table 6 Dissolution equipment and parameters
0.1mol/L hydrochloric acid solution: 9ml of hydrochloric acid was added into 1000ml of water and stirred well.
After the dissolution conditions were reached, 500 mg of sample powder were weighed and put into a dissolution cup, rotated, and immediately counted the time, after 1, 2, 3, 4, 6, 8, 10, 12, 14, 16, 18, 20, 22 and 24 hours, sampled with a sampling needle equipped with a 10µm polymeric polyethylene filter membrane, and filtered on-line through a 0.45µm polyvinylidene fluoride (PVDF) filter membrane.

Row | Substance | dissolution rate (times that of Apixaban)
1 | Apixaban/D-malic acid co-crystal [crystal form II] | 1.44 times
2 | Apixaban/malonic acid co-crystal [crystal form I] | 1.4 times

— patent EP3932918A1, “EUTECTIC CRYSTAL FORMED BY APIXABAN AND CARBOXYLIC ACID, AND PREPARATION METHOD THEREFOR” (Zhejiang Tianyu Pharmaceutical Co., Ltd., priority 2019, dated 2021)
